According to US20260125374A1, “PI3K-ALPHA INHIBITORS AND METHODS OF MAKING AND USING THE SAME” (Relay Therapeutics, Inc., priority 2021, published 2026):

Experiment: Grinding simulation experiments
Type: physicochemical
Experimental: About 50 mg of I-1 Form A was ground manually with a mortar and pestle for 1, 3 and 5 min. Form transformation and degree of crystallinity was evaluated by XRPD.
About 50 mg of Form A was ground manually with a mortar and pestle for 1, 3 and 5 min. Form transformation and degree of crystallinity was evaluated by XRPD.

With `N#Cc1c(-c2cc(NC(=O)c3cc(F)cc(C(F)(F)F)c3)c3c(c2)C(=O)N[C@H]3c2cc(F)ccc2Cl)ccc2ncnn12` [Compound I-1, (R)-N-(3-(2-chloro-5-fluorophenyl)-6-(5-cyano-[1,2,4]triazolo[1,5-a]pyridin-6-yl)-1-oxoisoindolin-4-yl)-3-fluoro-5-(trifluoromethyl)benzamide] the “XRPD peak intensity after dry grinding” value was “slightly decreased”, the XRPD (Dry grinding for 1 min) was “No form and crystallinity change,” and the “form change on grinding (XRPD)” value (mortar and pestle 1, 3 and 5 min) was “no form change”.
